Earlier results as cited in US8633167B2, “Method for the protection of trees” (Syngenta Crop Protection LLC, priority 2006, dated 2014).

Tests used:
[1] = test system: SPB; conditions: applied by Mauget Injectors; cited from earlier work
[2] = test system: SPB; conditions: applied to foliage at two different rates; cited from earlier work

In the case of COP(=O)(OC)O/C(C)=C/C(=O)N(C)C [dicrotophos], the egg gallery length [1] is listed as “significantly reduce” and the subsequent brood production [1] is listed as “significantly reduce”.
For COP(=O)(NC(C)=O)SC (stereo not shown) [acephate], the SPB larval survival [2] is given as “reduce” and the “effect on eggs, pupae, callow or parent adults” value [2] is given as “no effect”.
